In patent US20160257697A1, “THIOPHENE-SUBSTITUTED TETRACYCLIC COMPOUNDS AND METHODS OFUSE THEREOF FOR THE TREATMENT OF VIRAL DISEASES” (priority 2013, published 2016):
Read-outs that look alike come from different tables or passages of the source.

Columns and labels:
Experiment in all cases: microbe, parasite or virus in culture
Type in all cases: cell-based, Hepatitis C virus (HCV)
HCV replicon 1AQ30D = conditions: Replicon Assay B
HCV replicon 1B = conditions: Replicon Assay B
HCV replicon 1A = conditions: Replicon Assay A
How it was run: (§1)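 HCV replicon RNA levels were quantified by TaqMan RT-PCR after 3-day compound exposure (0.5% DMSO, 5% FBS). Cyclophilin RNA, co-amplified in the same reaction, served as endogenous control; Ct values were converted to RNA amounts using linear regression standard curves.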

HCV replicon 2B = conditions: Replicon Assay A
How it was run: as §1

HCV replicon 1AY93H = conditions: Replicon Assay A
How it was run: as §1

[1] = read-out: 1A Q30D IC50, HCV replicon 1A Q30D
[2] = read-out: 2B IC50, HCV replicon 2B
[3] = read-out: 1A Y93H IC50, HCV replicon 1A Y93H
[4] = read-out: 1A Q30D IC50, replicon 1AQ30D
[5] = read-out: 1A Y93H IC50, replicon 1AY93H

SMILES: COC(=O)N[C@H](C(=O)N1CCC[C@H]1c1ncc(-c2cc(F)c3c(c2)OC(c2cc4c(s2)CCC4)n2c-3cc3cc(-c4cnc([C@@H]5CCCN5C(=O)[C@@H](NC(=O)OC)C5CCOCC5)[nH]4)ccc32)[nH]1)C(C)C (single isomer, unassigned) [Compound 622]
- IC50 (HCV replicon 1AQ30D; [1]): 0.0594 nM
- IC50 (HCV replicon 1B; HCV replicon 1B): 0.0022 nM
- IC50 (HCV replicon 1A; HCV replicon 1A): 0.0024 nM
- IC50 (HCV replicon 2B; [2]): 0.0068 nM
- IC50 (HCV replicon 1AY93H; [3]): 0.0044 nM

SMILES: COC(=O)N[C@H](C(=O)N1CCC[C@H]1c1ncc(-c2cc(C)c3c(c2)OC(c2ccc(C4CC4)s2)n2c-3cc3cc(-c4cnc([C@@H]5C[C@H]6C[C@H]6N5C(=O)[C@@H](NC(=O)OC)C(C)C)[nH]4)ccc32)[nH]1)C(C)C (single isomer, unassigned) [Compound 756]
- IC50 (HCV replicon 1AQ30D; [1]): 10.2 nM
- IC50 (HCV replicon 1B; HCV replicon 1B): 0.0022 nM
- IC50 (HCV replicon 1A; HCV replicon 1A): 0.0036 nM
- IC50 (HCV replicon 2B; [2]): 0.6 nM
- IC50 (HCV replicon 1AY93H; [3]): 0.64 nM

SMILES: COC(=O)N[C@H](C(=O)N1CCC[C@H]1c1ncc(-c2cc(F)c3c(c2)OC(c2ccc(CC4CC4)s2)n2c-3cc3cc(-c4cnc([C@@H]5CCCN5C(=O)[C@@H](NC(=O)OC)C5CCOCC5)[nH]4)ccc32)[nH]1)C(C)C (single isomer, unassigned) [Compound 357]
- IC50 (HCV replicon 1AQ30D; [4]): 0.0165 nM
- IC50 (HCV replicon 1B; replicon 1B): 0.003 nM
- IC50 (HCV replicon 1A; replicon 1A): 0.0021 nM
- IC50 (HCV replicon 2B; read-out: 2B IC50, replicon 2B): 0.0026 nM
- IC50 (HCV replicon 1AY93H; [5]): 0.0041 nM

SMILES: COC(=O)NC(C(=O)N1[C@@H]2C[C@@H]2C[C@H]1c1ncc(-c2ccc3c(c2)cc2n3C(c3cc4c(s3)CCC4)Oc3cc(-c4cnc([C@@H]5CCCN5C(=O)[C@@H](NC(=O)OC)C(C)C)[nH]4)cc(F)c3-2)[nH]1)C(C)C (single isomer, unassigned) [Compound 659]
- IC50 (HCV replicon 1AQ30D; Hepatitis C virus, read-out: 1A Q30D IC50, HCV replicon 1A Q30D): 0.535 nM
- IC50 (HCV replicon 1B; Hepatitis C virus, HCV replicon 1B): 0.00191 nM
- IC50 (HCV replicon 1A; Hepatitis C virus, HCV replicon 1A): 0.0035 nM
- IC50 (HCV replicon 2B; Hepatitis C virus, read-out: 2B IC50, HCV replicon 2B): 0.122 nM
- IC50 (HCV replicon 1AY93H; [3]): 0.0146 nM

SMILES: COC(=O)N[C@H](C(=O)N1[C@@H]2C[C@@H]2C[C@H]1c1ncc(-c2ccc3c(c2)OC(c2ccc(C4CC4)s2)n2c-3cc3cc(-c4cnc([C@@H]5C[C@H]6C[C@H]6N5C(=O)[C@@H](NC(=O)OC)C(C)C)[nH]4)ccc32)[nH]1)C(C)C (single isomer, unassigned) [Compound 8]
- IC50 (HCV replicon 1AQ30D; replicon 1AQ30D, read-out: 1A Q30D IC50): 0.47 nM
- IC50 (HCV replicon 1B; replicon 1B): 0.0027 nM
- IC50 (HCV replicon 1A; replicon 1A): 0.0174 nM
- IC50 (HCV replicon 2B; replicon 2B, read-out: 2B IC50): 0.14 nM
- IC50 (HCV replicon 1AY93H; replicon 1AY93H, read-out: 1A Y93H IC50): 0.33 nM

SMILES: COC(=O)N[C@H](C(=O)N1CCC[C@H]1c1ncc(-c2cc(F)c3c(c2)OC(c2cc4ccccc4s2)n2c-3cc3cc(-c4cnc([C@@H]5C[C@H]6C[C@H]6N5C(=O)[C@@H](NC(=O)OC)C(C)C)[nH]4)ccc32)[nH]1)C(C)C (single isomer, unassigned) [Compound 616]
- IC50 (HCV replicon 1AQ30D; [1]): 0.538 nM
- IC50 (HCV replicon 1B; HCV replicon 1B): 0.002 nM
- IC50 (HCV replicon 1A; HCV replicon 1A): 0.0029 nM
- IC50 (HCV replicon 2B; [2]): 0.266 nM
- IC50 (HCV replicon 1AY93H; [3]): 0.0205 nM

SMILES: COC(=O)NC(C(=O)N1CCC[C@H]1c1ncc(-c2ccc3c(c2)cc2n3C(c3ccc(C4CC4)s3)Oc3cc(-c4cnc([C@@H]5CCCN5C(=O)[C@@H](NC(=O)OC)C(C)C)[nH]4)cc(F)c3-2)[nH]1)C1CCCCO1 (single isomer, unassigned) [Compound 343]
- IC50 (HCV replicon 1AQ30D; [4]): 0.704 nM
- IC50 (HCV replicon 1B; replicon 1B): 0.0023 nM
- IC50 (HCV replicon 1A; replicon 1A): 0.001 nM
- IC50 (HCV replicon 2B; read-out: 2B IC50, replicon 2B): 0.829 nM
- IC50 (HCV replicon 1AY93H; [5]): 0.37 nM

SMILES: CCc1ccc(C2Oc3cc(-c4cnc([C@@H]5CCCN5C(=O)[C@@H](NC(=O)OC)C(C)C)[nH]4)cc(F)c3-c3cc4cc(-c5cnc([C@@H]6CCCN6C(=O)[C@@H](NC(=O)OC)C(C)C)[nH]5)ccc4n32)s1 (single isomer, unassigned) [Compound 3]
- IC50 (HCV replicon 1AQ30D; Hepatitis C virus, read-out: 1A Q30D IC50 (nM), replicon 1AQ30D): 50.6 nM
- IC50 (HCV replicon 1B; Hepatitis C virus, replicon 1B): 0.0012 nM
- IC50 (HCV replicon 1A; Hepatitis C virus, replicon 1A): 0.0036 nM
- IC50 (HCV replicon 2B; Hepatitis C virus, read-out: 2B IC50 (nM), replicon 2B): 4.45 nM
- IC50 (HCV replicon 1AY93H; Hepatitis C virus, read-out: 1A Y93H IC50 (nM), replicon 1AY93H): 4.7 nM

SMILES: COC(=O)NC(C(=O)N1CCC[C@H]1c1ncc(-c2ccc3c(c2)cc2n3C(c3ccc(C4CC4)s3)Oc3cc(-c4cnc([C@@H]5CCCN5C(=O)[C@@H](NC(=O)OC)C(C)C)[nH]4)cc(F)c3-2)[nH]1)C1CCO[C@H](C)C1 (single isomer, unassigned) [Compound 135]
- IC50 (HCV replicon 1AQ30D; [4]): 0.027 nM
- IC50 (HCV replicon 1B; replicon 1B): 0.003 nM
- IC50 (HCV replicon 1A; replicon 1A): 0.0024 nM
- IC50 (HCV replicon 2B; read-out: 2B IC50, replicon 2B): 0.006 nM
- IC50 (HCV replicon 1AY93H; [5]): 0.004 nM

SMILES: COC(=O)NC(C(=O)N1[C@@H]2C[C@@H]2C[C@H]1c1ncc(-c2ccc3c(c2)cc2n3C(c3ccc(CC4CC4)s3)Oc3cc(-c4cnc([C@@H]5CCCN5C(=O)[C@@H](NC(=O)OC)C(C)C)[nH]4)cc(F)c3-2)[nH]1)C1CCOC(C)(C)C1 (single isomer, unassigned) [Compound 416]
- IC50 (HCV replicon 1AQ30D; [1]): 1.24 nM
- IC50 (HCV replicon 1B; HCV replicon 1B): 0.0031 nM
- IC50 (HCV replicon 1A; HCV replicon 1A): 0.0023 nM
- IC50 (HCV replicon 2B; [2]): 0.104 nM
- IC50 (HCV replicon 1AY93H; [3]): 0.0862 nM
